What was measured:
Type in all cases: cell-based
HIV-1 = test system: HIV-1
[1] = test system: HIV-1 Nef (NA7) fused to GFP; settings: 293T cells transduced with pHR'-CMV vectors, transfected with Nef (NA7)-GFP
HIV-1 R9 = test system: HIV-1 R9
HIV-1 (R9) [2] = experiment: HIV-induced CD4 down-modulation in transduced CD4-positive cell lines (SupT1, C8166, MAGIC5B)
HIV-1 (R9) [3] = experiment: Infectivity in MAGIC5 cells of particles released from transduced SupT1, C8166 and MAGIC5B cells; settings: three cell types (SupT1, C8166, MAGIC5B); compared to control GFP vectors
Description: Infectivity assays were performed with MAGIC-5 cells using equal amounts of input virus (measured as ng p24 protein) in the presence of 20 μg/ml DEAE dextran. Infection was allowed for 48 hours. Routinely, after 8 hrs of infection, 1 μM AZT was added to block second rounds of virus replication. Infected cells were scored after staining for beta-galactosidase with X-Gal.
Truncated receptor provided to a cell via one of the above-described vectors negatively interferes with HIV-induced down-regulation of endogenous CD4 receptor. […] Though any suitable cell line could be used, the three chosen were: SupT1, C8166, and MAGIC5B. These were selected because they express high levels of viral receptor, as shown in the bottom panel of FIG. 7. Transduction efficiencies with GFP control vectors were higher than 90% in all cell lines, as estimated by flow cytometry. Infection of mock-transduced cells with HIV-1 led to efficient down-modulation of CD4. […] In these cultures, a population of low-CD4/p24-positive infected cells that had undergone receptor down-modulation emerged. […] The infectivity of viral particles released from the cells was determined as with respect to FIG. 5, above.

HIV-1 (R9) [4] = experiment: Surface CD4 down-modulation in transduced PBMC infected with HIV-1 (flow cytometry)
[5] = test system: CXCR4-tropic R9 HIV-1 strain; experiment: Viral replication assay in transduced Jurkat Low-CD4 cells (p24 accumulation)
[6] = test system: HIV-1 Env (gp160, gp120, gp41)
[7] = virions purified through sucrose cushions

Molecule	extent of inhibition of infectivity relative to that by CD4Δcyt expression (HIV-1; 1 μM added to target MAGIC5 cells)	effect of Nef-GFP expression on surface expression of the CD4 variant [1]	amount on the surface of infected cells, mean values (HIV-1 R9)	down-modulation of surface receptor by HIV-1 (VSV) (HIV-1 R9)	surface levels in HIV-1 infected cells, higher than in infected cells transduced with wild-type CD4 (HIV-1 R9) [fold]	extent of inhibition in single-round infectivity assays (HIV-1)	reduced infectivity of viral progeny (HIV-1) [fold]	reduction of infectivity of HIV-1 (HIV-1)	surface CD4 levels in infected cells, higher than in mock-infected cells (HIV-1 (R9) [2]; SupT1, C8166, MAGIC5B cells)	receptor down-modulation after HIV-1 infection of transduced CD4-positive cells (HIV-1 (R9) [2]; SupT1, C8166, MAGIC5B cells, 48 h after infection)	p24-positive cells with low levels of CD4 receptor (HIV-1 (R9) [2]; cultures of SupT1 and C8166 cells)	infectivity of viral particles released from transduced cells (HIV-1 (R9) [3])	reduction in CD4 down-modulation compared to cells transduced with full-length receptor (HIV-1 (R9) [4]; PBMC infected with HIV-1)	numbers of low-CD4/GFP-positive cells after HIV-1 infection (HIV-1 (R9) [4]; PBMC transduced to similar levels with pWPI vector)	HIV-1 replication (p24 accumulation in cultures) ([5]; Jurkat Low-CD4 cells, HIV-1 R9)	revertant viruses ([5]; after more than 60 days, two independent experiments, Jurkat Low-CD4 cells exposed to HIV-1)	gp160 envelope precursor in producer cell lysates (anti-gp120 western blot) ([6]; total cell lysates of 293T producer cells)	steady-state levels of gp41 in producer cells ([6]; transduced 293T cells)	gp41 incorporation in membranes from virions [6, 7]	gp120 incorporation into / exclusion from virions [6, 7]
Cc1cn([C@H]2C[C@H](N=[N+]=[N-])[C@@H](CO)O2)c(=O)[nH]c1=O [AZT, reference compound]	comparable	–	–	–	–	–	–	–	–	–	–	–	–	–	–	–	–	–	–	–
CD4Δcyt	–	did not alter the expression	2857	completely resistant to down-modulation	11	greater than 99%	100	more than 1000 fold	3- to 4 fold	failed to down-modulate the receptor	no longer observed	largely diminished infectivity	more than 10 fold	reduced numbers of low-CD4/GFP-positive cells	complete abrogation of HIV-1 replication	not detected	accumulation of a 160 kDa protein band	reduction in the steady-state levels of gp41	Reductions in gp41 incorporation	more severe

From US20080146495A1, “Methods for Treating Hiv by Inhibiting Cd4 Down-Modulation” (The Regents of the University of California, priority 2005, published 2008)
